Measured values as given in the NIST ThermoML archive (doi:10.1016/j.jct.2012.05.009).
± gives the expanded uncertainty stated by the source.

Assay: mn = molality of the nth substance listed, in mol/kg
Details: 101 kPa, Liquid, Vibrating tube method

## CC(=O)CCCCn1c(=O)c2c(ncn2C)n(C)c1=O [3,7-dimethyl-1-(5-oxohexyl)-3,7-dihydro-1H-purine-2,6-dione] + O
293.15 K, m1 = 0.09736
  mass density: 1003.77 ± 0.036 kg/m3
293.15 K, m1 = 0.0976
  mass density: 1003.77 ± 0.036 kg/m3
293.15 K, m1 = 0.09842
  mass density: 1003.81 ± 0.037 kg/m3
293.15 K, m1 = 0.09851
  mass density: 1003.83 ± 0.037 kg/m3
293.15 K, m1 = 0.1012
  mass density: 1003.97 ± 0.036 kg/m3
298.15 K, m1 = 0.09736
  mass density: 1002.51 ± 0.038 kg/m3
298.15 K, m1 = 0.0976
  mass density: 1002.51 ± 0.036 kg/m3
298.15 K, m1 = 0.09842
  mass density: 1002.55 ± 0.057 kg/m3
298.15 K, m1 = 0.09851
  mass density: 1002.57 ± 0.043 kg/m3
298.15 K, m1 = 0.1012
  mass density: 1002.7 ± 0.036 kg/m3
303.15 K, m1 = 0.09736
  mass density: 1001.02 ± 0.037 kg/m3
303.15 K, m1 = 0.0976
  mass density: 1001.02 ± 0.035 kg/m3
303.15 K, m1 = 0.09842
  mass density: 1001.06 ± 0.054 kg/m3
303.15 K, m1 = 0.09851
  mass density: 1001.08 ± 0.041 kg/m3
303.15 K, m1 = 0.1012
  mass density: 1001.21 ± 0.035 kg/m3
308.15 K, m1 = 0.09736
  mass density: 999.319 ± 0.035 kg/m3
308.15 K, m1 = 0.0976
  mass density: 999.32 ± 0.035 kg/m3
308.15 K, m1 = 0.09842
  mass density: 999.356 ± 0.037 kg/m3
308.15 K, m1 = 0.09851
  mass density: 999.381 ± 0.037 kg/m3
308.15 K, m1 = 0.1012
  mass density: 999.508 ± 0.035 kg/m3
